Several values for one entry are separate records, joined by “and”; a condition that tells them apart may be missing. Equal entries are not always repeated.
Test system: WM3248 melanoma cells, 486 antibodies
Assay: Reverse phase protein arrays (RPPA)
Assay type: cell-based, Human
Details: normalized to 0
Source text: Pellets were snap frozen in liquid nitrogen and shipped to MD Anderson Cancer Center core RPPA facility for RPPA analysis (Table S5). Three biological replicates for each sample were generated.
Nomenclatures on the RPPA heatmaps: name_of_antibody.species_of_antibody.status_of_antibody. V - antibody validated; C - validation of antibody in progress; Q - antibody nonspecific; E – under evaluation; antibodies raised in M - mouse, G - goat, R - rabbit, or T - rat.

## CN(C)c1cccc(Nc2cc(-c3ccccc3)nc(C3CCNCC3)n2)c1 [ARN22089, N1,N1-dimethyl-N3-(6-phenyl-2-(piperidin-4-yl)pyrimidin-4-yl)benzene-1,3-diamine]
10, average
  FoxO3a_pS318_S321.R.C Norm_10 Average: 1.029
  G6PD.R.V Norm_10 Average: 1.034
  GATA3.M.V Norm_10 Average: 1.281
  GATA6.R.V Norm_10 Average: 1.018
  GCLC.R.C Norm_10 Average: 0.996
  GCLM.R.V Norm_10 Average: 1.023
  GCN5L2.R.V Norm_10 Average: 0.928
  GRB2.R.V Norm_10 Average: 0.887
  GRB7.R.V Norm_10 Average: 0.924
  GSK.3B.R.C Norm_10 Average: 0.899
  GSK.3a.b.M.V Norm_10 Average: 1.031
  GSK.3a.b_pS21_S9.R.V Norm_10 Average: 1.266
  Gab2.R.V Norm_10 Average: 1.065
  Gli1.R.C Norm_10 Average: 1.005
  Gli3.R.C Norm_10 Average: 1.134
  Glucocorticoid.Receptor.R.V Norm_10 Average: 1.119
  Glutamate.D1.2.R.V Norm_10 Average: 1.156
  Granzyme.B.R.V Norm_10 Average: 0.968
  Grp75.R.C Norm_10 Average: 1.129
  Gys.R.V Norm_10 Average: 0.931
  Gys_pS641.R.V Norm_10 Average: 0.978
  H2AX_pS139.R.C Norm_10 Average: 0.977
  H2AX_pS140.M.C Norm_10 Average: 1.138
  HER2.M.V Norm_10 Average: 1.033
  HER2_pY1248.R.V Norm_10 Average: 0.915
  HER3_pY1289.R.C Norm_10 Average: 1.047
  HES1.R.V Norm_10 Average: 0.974
  eEF2.R.C Norm_10 Average: 1.492
  eEF2K.R.V Norm_10 Average: 1.201
  eIF4E.R.V Norm_10 Average: 0.994
  eIF4E_pS209.R.V Norm_10 Average: 0.960
  eIF4G.R.C Norm_10 Average: 0.972
10, replicates 1-3
  DNMT1.R.V Norm_10: 1.003 and 1.020 and 1.147
  DRP1.R.V Norm_10: 0.964 and 0.992
  DUSP4.R.V Norm_10: 0.853 and 0.881 and 0.939
  DUSP6.R.C Norm_10: 1.409 and 0.561
  DYRK1B.R.C Norm_10: 0.895 and 0.964 and 0.986
  Dvl3.R.V Norm_10: 0.922 and 1.053 and 0.910
  E2F1.R.V Norm_10: 1.049 and 1.123 and 1.077
  E.Cadherin.R.V Norm_10: 0.791 and 0.958
  EGFR.R.V Norm_10: 0.866 and 1.059 and 1.002
  EGFR_pY1068.R.C Norm_10: 0.894 and 0.930 and 1.047
  EGFR_pY1173.R.V Norm_10: 1.016 and 0.963 and 0.929
  EMA.M.C Norm_10: 0.676 and 1.005
  ENY2.M.C Norm_10: 0.937 and 1.132
  ER.a.R.V Norm_10: 0.989 and 0.867 and 0.907
  ER.a_pS118.R.V Norm_10: 1.111 and 0.755 and 0.869
  ERCC1.R.C Norm_10: 0.934 and 1.208 and 0.991
  ERCC5.R.C Norm_10: 0.985 and 0.864
  ERRalpha.R.V Norm_10: 0.941 and 1.106 and 0.995
  EVI1.R.V Norm_10: 0.864 and 1.146 and 1.022
  Elk1_pS383.R.C Norm_10: 1.027 and 0.931
  Enolase.1.R.V Norm_10: 0.940 and 1.265 and 1.276
  Enolase.2.R.V Norm_10: 0.995 and 1.149 and 0.982
  EphA2.R.V Norm_10: 0.867 and 0.985 and 0.905
  EphA2_pS897.R.C Norm_10: 0.664 and 0.906 and 1.028
  EphA2_pY588.R.C Norm_10: 0.917 and 0.980 and 0.925
  Erk5.R.V Norm_10: 0.835 and 0.809 and 0.986
  Ets.1.R.V Norm_10: 1.099 and 1.361 and 1.457
  FABP5.R.C Norm_10: 0.950 and 1.278 and 1.483
  FAK.R.C Norm_10: 0.896 and 0.913 and 1.054
  FAK_pY397.R.V Norm_10: 0.925 and 1.035 and 0.946
  FANCD2.R.V Norm_10: 0.931 and 0.985 and 0.874
  FASN.R.V Norm_10: 1.108 and 0.851 and 0.928
  FGF.basic.R.C Norm_10: 0.849 and 0.905 and 1.085
  FN14.R.C Norm_10: 1.121
  FOXM1.R.V Norm_10: 0.803 and 0.992 (2×)
  FOXO3.R.V Norm_10: 0.977 and 1.253 and 1.014
  FRS2.alpha_pY196.R.V Norm_10: 0.953 and 2.062 and 1.103
  FTO.R.V Norm_10: 0.987 and 1.185 and 1.127
  Fibronectin.R.V Norm_10: 0.978 and 1.062 and 1.006
  FoxO3a_pS318_S321.R.C Norm_10: 0.963 and 1.140 and 0.984
  G6PD.R.V Norm_10: 0.932 and 1.169 and 1.001
  GATA3.M.V Norm_10: 1.235 and 1.401 and 1.207
  GATA6.R.V Norm_10: 1.020 and 1.082 and 0.952
  GCLC.R.C Norm_10: 0.939 and 0.967 and 1.083
  GCLM.R.V Norm_10: 0.965 and 1.111 and 0.992
  GCN5L2.R.V Norm_10: 0.997 and 0.898 and 0.890
  GGPS1.M.V Norm_10: 0.913 and 1.085 and 1.264
  GRB2.R.V Norm_10: 0.867 and 0.876 and 0.919
  GRB7.R.V Norm_10: 0.829 and 0.838 and 1.106
  GSK.3B.R.C Norm_10: 0.867 and 0.924 and 0.907
  GSK.3a.b.M.V Norm_10: 0.998 and 1.049
  GSK.3a.b_pS21_S9.R.V Norm_10: 1.903 and 0.801
  Gab2.R.V Norm_10: 1.165 and 1.098 and 0.933
  Gli1.R.C Norm_10: 0.913 and 0.965 and 1.136
  Gli3.R.C Norm_10: 1.151 and 1.082 and 1.169
  Glucocorticoid.Receptor.R.V Norm_10: 1.159 and 1.201 and 0.996
  Glutamate.D1.2.R.V Norm_10: 0.997 and 1.319 and 1.150
  Glutaminase.R.C Norm_10: 0.936 and 1.126 and 1.162
  Granzyme.B.R.V Norm_10: 1.207 and 0.777 and 0.921
  Grp75.R.C Norm_10: 1.100 and 1.356 and 0.930
  Gys.R.V Norm_10: 0.972 and 0.858 and 0.963
  Gys_pS641.R.V Norm_10: 0.959 and 0.885
  H2AX_pS139.R.C Norm_10: 0.952 and 0.894
  H2AX_pS140.M.C Norm_10: 0.944 and 1.316 and 1.153
  HER2.M.V Norm_10: 1.003 and 1.056
  HER2_pY1248.R.V Norm_10: 0.907 and 0.828 and 1.009
  HER3.R.V Norm_10: 0.945 and 1.026 and 0.936
  HER3_pY1289.R.C Norm_10: 1.083 and 1.014
  HES1.R.V Norm_10: 1.156 and 0.918 and 0.849
  Heregulin.R.V Norm_10: 0.988 and 0.972 and 0.854
  eEF2.R.C Norm_10: 1.541 and 1.276 and 1.659
  eEF2K.R.V Norm_10: 1.101 and 1.387 and 1.115
  eIF4E.R.V Norm_10: 1.636 and 0.500 and 0.846
  eIF4E_pS209.R.V Norm_10: 0.984 and 0.803
  eIF4G.R.C Norm_10: 0.963
20, average
  DRP1.R.V Norm_20 Average: 0.964
  DUSP4.R.V Norm_20 Average: 0.723
  DUSP6.R.C Norm_20 Average: 1.555
  Dvl3.R.V Norm_20 Average: 1.031
  E2F1.R.V Norm_20 Average: 1.247
  E.Cadherin.R.V Norm_20 Average: 0.854
  EGFR.R.V Norm_20 Average: 1.132
  EGFR_pY1068.R.C Norm_20 Average: 0.914
  EGFR_pY1173.R.V Norm_20 Average: 1.048
  EMA.M.C Norm_20 Average: 0.783
  ENY2.M.C Norm_20 Average: 0.952
  ER.a.R.V Norm_20 Average: 0.959
  ER.a_pS118.R.V Norm_20 Average: 1.311
  ERCC5.R.C Norm_20 Average: 1.110
  ERRalpha.R.V Norm_20 Average: 0.963
  EVI1.R.V Norm_20 Average: 0.976
  Elk1_pS383.R.C Norm_20 Average: 1.105
  Enolase.2.R.V Norm_20 Average: 0.948
  EphA2.R.V Norm_20 Average: 0.748
  EphA2_pS897.R.C Norm_20 Average: 0.630
  EphA2_pY588.R.C Norm_20 Average: 0.974
  Erk5.R.V Norm_20 Average: 0.917
  Ets.1.R.V Norm_20 Average: 1.379
  FABP5.R.C Norm_20 Average: 1.251
  FAK.R.C Norm_20 Average: 0.978
  FAK_pY397.R.V Norm_20 Average: 0.925
  FANCD2.R.V Norm_20 Average: 0.851
  FASN.R.V Norm_20 Average: 0.957
  FGF.basic.R.C Norm_20 Average: 1.005
  FN14.R.C Norm_20 Average: 1.106
  FOXM1.R.V Norm_20 Average: 0.936
  FRS2.alpha_pY196.R.V Norm_20 Average: 1.059
  FTO.R.V Norm_20 Average: 1.058
  Fibronectin.R.V Norm_20 Average: 1.193
  FoxO3a_pS318_S321.R.C Norm_20 Average: 1.005
  G6PD.R.V Norm_20 Average: 0.954
  GATA3.M.V Norm_20 Average: 1.318
  GATA6.R.V Norm_20 Average: 0.955
  GCLC.R.C Norm_20 Average: 1.023
  GCLM.R.V Norm_20 Average: 0.992
  GCN5L2.R.V Norm_20 Average: 0.995
  GGPS1.M.V Norm_20 Average: 1.022
  GRB2.R.V Norm_20 Average: 0.934
  GRB7.R.V Norm_20 Average: 0.995
  GSK.3B.R.C Norm_20 Average: 0.882
  GSK.3a.b.M.V Norm_20 Average: 0.925
  GSK.3a.b_pS21_S9.R.V Norm_20 Average: 1.221
  Gab2.R.V Norm_20 Average: 1.169
  Gli3.R.C Norm_20 Average: 1.301
  Glucocorticoid.Receptor.R.V Norm_20 Average: 1.170
  Glutamate.D1.2.R.V Norm_20 Average: 1.186
  Grp75.R.C Norm_20 Average: 1.195
  Gys_pS641.R.V Norm_20 Average: 0.856
  H2AX_pS139.R.C Norm_20 Average: 1.433
  H2AX_pS140.M.C Norm_20 Average: 1.232
